According to patent US9381273B2, “Scaffolds with oxygen carriers, and their use in tissue regeneration” (Yissum Research Development Company of the Hebrew …, priority 2008, dated 2016):

How the values were obtained:
[1] = system: tet-off BMP2 Luc/GFP cells; assay: Cell survival in ectopic implants, bioluminescence imaging (BLI); assay type: in vivo, C3H/HeN mice; conditions: fibrin gel, 5% and 10% PFTBA groups pooled
From the text: Imaging of cell viability in vivo—Tet-off BMP2 Luc/GFP Cell viability in the ectopic implants was quantified using the BLI system as was described (Bar, Zilberman et al. 2003). This CCCD tracking system (Roper Chemiluminescence Imaging System) consists of a CCCD camera (model LN/CCD-1300EB; Roper Scientific Inc.) equipped with an ST-133 controller and a 50-mm Nikon lens (Nikon Inc.). In this system, a pseudocolor image represents light intensity (blue signifies least intense and red most intense). The integrated light is the result of 2-minute exposure and acquisition. This CCCD camera converts photons to electrons with an efficiency of approximately 90% in the wavelength emission range of luciferin and converts approximately 1.8 electrons per count. Thus, every count represents 2 photons. The measurement is a total integrated signal of a constant exposure interval. […] The measurement can be verified by using a progressively larger region of interest (ROI) and by subtracting background readings. An increase in the ROI has no appreciable effect on the total intensity that is measured. Before light detection, the mice were anesthetized with a ketamine-xylazine mixture, which is injected intraperitoneally at 1 μl/g body weight. […]

osteocalcin = assay: Host osteocalcin gene expression in vivo, BLI in OC/Luc transgenic mice; parameters: species or system OC/Luc Tg mice; conditions: fibrin gel with MSCs, 5 or 10% PFTBA pooled
From the text: Osteocalcin gene expression in vivo—In order to analyze the effect of PFTBA supplementation on osteocalcin gene expression in vivo, transgenic mice (Oc-Luc), which harbor the Luc gene under the control of the osteogenic tissue-specific promoter, osteocalcin (Bar, Zilberman et al. 2003) were utilized. In order to monitor Luc activity in real-time a quantitative, the BLI system with the non-invasive cooled charge-coupled device (CCCD) camera was used. In this model, osteogenic activity in the transgenic mice was reported by Luc expression, which is activated by the osteocalcin promoter. This activity is detected by the CCCD as an emitted light following an injection of luciferin. The result values were normalized to constitutive tail expression of Luc, as previously described (Bar, Zilberman et al. 2003), so that the different mice that express the transgene with different intensities could be compared. In this experiment, 1×10^6 tet-off BMP2 cells in fibrin gel supplemented with 5 or 10% PFTBA, or not supplemented at all were implanted.

C3H/HeN mice [2] = assay: Cell-mediated posterior spinal fusion, micro CT; assay type: in vivo; conditions: 10% PFTBA
tet-off BMP-2 MSCs = assay: LDH release cytotoxicity assay of MSCs in fibrin gel in vitro; assay type: cell-based; conditions: 10% PFTBA (w/v) in 100 μl fibrin gel, 10^6 MSCs, days 1 and 3 after cell seeding
Experimental: Effect of PFTBA on cell survival and oxygen levels—10^6 tet-off BMP-2 MSCs were suspended in 100 μl fibrin gel and cultured in 35-mm plates. In these conditions, the inner region of the hydrogel is hypoxic (data not shown). The experimental groups included hydrogels which included 0% or 10% PFTBA (w/v). Cell death was measured using the LDH release cytotoxicity assay on Days 1, 3, 7 and 14. […] Note that cytotoxicity was reduced over time, probably since nutrients and oxygen supply were more available to the remaining surviving cells. In a separate experiment, oxygen levels were measured in the center of MSC-loaded gels ([…] in 300 μl fibrin gel) using the Microx TX3 oxygen sensor (Presens, Precision Sensing GmbH, Regensburg, Germany).

C3H/HeN mice [3] = assay: Radius bone defect regeneration, micro CT; conditions: 2.5-mm radius defect, fibrin gel with MSCs, 14 days
Experimental: Briefly, C3H/HeN female mice aged 6-8 weeks (n=16) were anesthetized using ketamine-xylazine mixture injected intraperitoneal. The skin of the forelimb was swabbed with isopropyl alcohol (70%). The skin was cut and 2.5 mm-long defect was created in the radius bone. Approximately one million Tet-off BMP2 cells were suspended in fibrin gel (Baxter) and supplemented with 5 or 10% PFTBA (Sigma, n=5 for each group) or not supplemented at all (n=6). The cell-gel mixture was incubated for 5 minutes in room temperature (RT) under sterile conditions to allow the fibrin to gel, and was subsequently implanted into the defect site. The mice were sacrificed 2 weeks post-transplantation; limbs were harvested and scanned using the μCT in order to analyze bone formation.
A quantitative morphometric analysis of the bone formation in nonunion fractures, was undertaken using μCT as previously described (Tai, K., et al., 2008, Tissue Eng Part A 14, 1709-1720). Mouse forelimbs, including ulna and radius, as well as native muscle and soft tissue were scanned using a Desktop Cone-Beam Micro-CT Scanner (μCT 40; Scanco Medical AG, Bruttisellen, Switzerland) at a spatial nominal resolution of 20 mm. A constrained 3D Gaussian filter (sigma=0.8 and support=1) was used to partly suppress the noise in the volumes. The bone tissue was segmented from marrow and soft tissue using a global thresholding procedure. In the nonunion fracture site, the evaluation was done only in the central 2-mm of the bone defect, including only newly formed bone. Morphometric indices were determined as described earlier.

C3H/HeN mice [4] = assay: Ectopic bone formation by subcutaneous hydrogel implants with Tet-off BMP2 MSCs, micro CT and histology; conditions: for bone volume of ectopic bone: SC implant, mean±standard error
Experimental: Ectopic implantations—At near confluency, Tet-off BMP2 cells or Tet-off BMP2 Luc/GFP cells were trypsinized and counted using the trypan blue exclusion method. Aliquots of cells (one million Tet-off BMP2 cells or 3 million Tet-off BMP2 Luc/GFP cells) were resuspended in 50111 of fibrin or silk gel. Five, 10 or 20% [weight per volume (w/v)] Heptacosafluorotributylamine (Perfluorotributylamine, PFTBA, Sigma catalogue number H5262; Sigma-Aldrich, St Louis, Mo., USA) was added to the hydrogel just before implantations.
The cell-hydrogel mixture was injected subcutaneously in 8 weeks old female C3H/HeN mice, as follows: mice were anesthetized with a mixture of xylazine and ketamine (0.15% xylazine and 0.85% ketamine), which was injected intraperitoneally (i.p.) at 1 μl/g body weight. The area of injection was shaved and cleaned using 70% ethanol. Using 27G tuberculin syringe the cells-gel mixture was injected subcutaneously. Each mouse received 3 or 4 implants, consistent of 50 μl hydrogel in which cells and PFTBA were mixed. Mice where sacrificed after two weeks, and implants were harvested and fixed in 4% formalin.
Analysis of bone formation using micro CT imaging—In order to quantify bone formation in the ectopic implants, a high-resolution μCT system, Desktop μCT 40 (Scanco Medical A G, Bassersdorf, Switzerland) was used. Micro-tomographic slices were acquired at 1000 projections and reconstructed at a spatial nominal resolution of 12 μm. A constrained 3-D Gaussian filter (σ=0.8 and support=1) was used to partly suppress the noise in the volumes. The mineralized tissue was segmented from the hydrogel using a global thresholding procedure (Muller, R., and Ruegsegger, P. 1997, Stud Health Technol Inform 40, 61-79). In addition to the visual assessment of structural images, morphometric indices were determined from the microtomographic datasets using direct 3D morphometry (Hildebrand, T., 1999, J Bone Miner Res 14, 1167-1174). […] The following morphometric indices were determined for the newly formed bone: (i) volume of bone tissue; (ii) bone mineral density; (iii) trabecular thickness; (iv) anisotropy; (v) bone volume density and (vi) trabecular separation.
Histological analysis of bone formation—Harvested ectopic implants and regenerated limbs were processed for histology and stained as described (Sheyn, Kimelman-Bleich et al. 2007). In short, samples were fixed in 70% ethanol, passed through a graded series of ethanols, and embedded in paraffin. Sections 5-8 μm thick were cut from each paraffin block using a motorized microtome (Leica Microsystems, Wetzlar, Germany). Masson trichrom staining was performed in order to evaluate the histomorphology of the mineralized tissue.

[5] = fibrin gel with MSCs, 10% PFTBA (w/v), two weeks

FC(F)(F)C(F)(F)C(F)(F)C(F)(F)N(C(F)(F)C(F)(F)C(F)(F)C(F)(F)F)C(F)(F)C(F)(F)C(F)(F)C(F)(F)F [PFTBA, Heptacosafluorotributylamine]
luciferase activity (cell survival) ([1]; day 3 post implantation): 21,519±2,047 integrated light units (ILU)
luciferase activity (cell survival) versus no-PFTBA group ([1]; day 7 post implantation): no significant difference between the groups was found
osteocalcin activity (osteocalcin; day 5 post-implantation): 2.76±0.48 relative light units (RLU; implant/tail)
osteocalcin activity versus no PFTBA group (osteocalcin; day 7 and 14): no significant difference was noted
average connectivity density elevation versus no PFTBA group (C3H/HeN mice [2]; week 3 post-implantation): 1.29 fold
bone volume density elevation versus no PFTBA group (C3H/HeN mice [2]; week 3 post-implantation): 1.25 fold
bone volume difference versus no PFTBA group (C3H/HeN mice [2]; week 3 post-implantation): this difference was not noted
trabecular number increase versus no PFTBA group (C3H/HeN mice [2]; week 3 post-implantation): 1.44 fold
bone volume of spinal fusion mass (C3H/HeN mice [2]; fibrin gel with MSCs, lumbar paravertebral muscle, 6 weeks post implantation): 70.71±2.7 mm^3
cell death (LDH release cytotoxicity) versus 0% PFTBA (tet-off BMP-2 MSCs): significantly fewer cells died
volume of bone formed versus no PFTBA (C3H/HeN mice [3]; 5 or 10% PFTBA (w/v)): no significant difference
BMD elevation of the formed bone, supplemented versus non-supplemented (C3H/HeN mice [3]; 5 or 10% PFTBA): 1.1-1.2
trabecular thickness elevation versus no-PFTBA group (C3H/HeN mice [3]; 5 or 10% PFTBA): 1.3 fold
bone volume of ectopic bone (C3H/HeN mice [4]; fibrin gel with MSCs, 5% PFTBA (w/v), two weeks): 0.98±0.26 mm^3
bone volume of ectopic bone (C3H/HeN mice [4]; [5]): 1.77±0.47 mm^3
increase in bone volume compared with the 0% PFTBA group (C3H/HeN mice [4]; [5]): 2.5 fold
histology of implants (bone, hypertrophic cartilage, bone marrow) (C3H/HeN mice [4]; fibrin gel, 0%, 5%, 10% PFTBA, day 14, Masson trichrom): No histological difference was found
volume of the ectopic bone versus no PFTBA group (C3H/HeN mice [4]; two weeks, 1-tailed T-test p=0.033): significant differences were found
